Data reported in PMC4793301, “From chlorite dismutase towards HemQ–the role of the proximal H-bonding network in haeme binding” (Bioscience Reports, 2016).

Assays:
NdCld wild-type = test: Titration of SCN− and F− to NdCld wild-type, UV–vis, dissociation constant; type: binding, Candidatus Nitrospira defluvii; settings: pH 5.5, 25°C
Method: SCN^− and F^− were titrated to NdCld wild-type for the determination of the dissociation constant (KD). The UV–visible electronic absorption spectrum of wild-type NdCld is altered upon binding of SCN^− or F^− if the respective ligand acts as a sixth ligand to haeme b. Binding of F^− was monitored by the change in absorbance at 612 nm [charge transfer band (CT1)] and binding of SCN^− was followed at 411 nm (Soret band). The measurements were performed using a Zeiss Specord S10 DiodeArray spectrophotometer equipped using a quartz cuvette with a path length of 10 mm under constant stirring at 25°C. Samples of 2 μM concentration in 50 mM MES buffer, pH 5.5, were used. Final ligand concentrations were 120 mM (F^−) and 50 mM (SCN^−).

[1] = molecular target: T1, NdCld (chlorite dismutase from 'Candidatus Nitrospira defluvii') (Nitrospira defluvii, UniProt B3U4H7); design: gene cld; settings: 200 mM fluoride, 175 μM chlorite, 50 nM enzyme, 50 mM MES pH 5.5, 30 °C
T1 sequence (B3U4H7 27-264): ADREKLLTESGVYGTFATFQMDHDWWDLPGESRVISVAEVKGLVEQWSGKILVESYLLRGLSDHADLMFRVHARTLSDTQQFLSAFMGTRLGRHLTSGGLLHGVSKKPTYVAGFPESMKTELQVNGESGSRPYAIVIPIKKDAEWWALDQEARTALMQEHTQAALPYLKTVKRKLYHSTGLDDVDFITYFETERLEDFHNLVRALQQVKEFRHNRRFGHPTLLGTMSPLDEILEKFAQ

[2] = molecular target: T1, NdCld (chlorite dismutase from 'Candidatus Nitrospira defluvii'); test: biochemical; design: gene cld
[3] = system: NdCld (chlorite dismutase), substrate chlorite; test: Chlorite degradation, O2 release with Clark-type electrode (steady state); type: biochemical, Candidatus Nitrospira defluvii; settings: 200 mM fluoride, 175 μM chlorite, pH 5.5
Method: Cld-mediated chlorite reduction and concomitant oxygen generation was monitored by measuring the release of O2 using a Clark-type electrode (Oxygraph Plus; Hansatech Instruments). The electrode was inserted into a stirred water bath maintained at 30°C. The electrode was equilibrated to 100% O2 saturation by flushing with O2, further 0% saturation was achieved by bubbling with N2 until a plateau was reached. Reactions were carried out in O2-free 50 mM MES buffer, pH 5.5. […] A high excess of ligands (200 mM F^−, 10 mM SCN^−) was present in the respective measurements. […] Molecular oxygen production rates (μM O2 s^−1) were obtained from the initial linear time traces (initial velocities, v0) for direct comparison.

[4] = molecular target: T1, NdCld (chlorite dismutase from 'Candidatus Nitrospira defluvii'); test: DSC, absolute Tm with ligand; type: binding; design: gene cld; TEV-cleavable N-terminal Strep-II tag, modified pET-21b(+), E. coli Tuner (DE3) with hemin added; haeme b pentamer; settings: 50 mM MES pH 5.5
[5] = molecular target: T1, NdCld (chlorite dismutase from 'Candidatus Nitrospira defluvii'); test: UV-vis titration, Soret band […] nm; type: binding; design: gene cld; TEV-cleavable N-terminal Strep-II tag, modified pET-21b(+), E. coli Tuner (DE3) with hemin added; haeme b pentamer
BsHemQ = molecular target: BsHemQ; design: method as in PMID 20543190; settings: read-out: KD of haeme binding; cited from earlier work
SaHemQ = molecular target: SaHemQ; design: method as in PMID 23737523; settings: read-out: KD of haeme binding; cited from earlier work
LmHemQ = molecular target: LmHemQ; design: method as in PMID 25602700; settings: read-out: KD of haeme binding; cited from earlier work

SMILES: F [F^−, fluoride]
- Kd (NdCld wild-type; F− to wild-type protein): 5900 ± 400 µM
- v0 remaining [1]: 53%
- Kd [2]: 5900 ± 400 µM
- v0 of wild-type NdCld remaining relative to ligand free [3]: 53%
- Tm ([4]; 200 mM fluoride): 102 °C

SMILES: N#CS [SCN^−, thiocyanate]
- Kd (NdCld wild-type; SCN− to wild-type protein): 150 ± 40 µM
- Kd [5]: 150 ± 40 µM
- Tm ([4]; 10 mM thiocyanate, main peak): 94 °C

SMILES: C=CC1=C(C)c2cc3[n-]c(cc4[n-]c(cc5nc(cc1n2)C(C)=C5C=C)c(C)c4CCC(=O)O)c(CCC(=O)O)c3C.[Fe+2] [haeme, haeme b]
- Kd (BsHemQ): 30 to 40 µM
- Kd (SaHemQ): 1 µM
- Kd (LmHemQ): 7 to 16 µM
